Assay results reported in article PMC3849266, “In Vitro and In Vivo Evaluation of a ^18F-Labeled High Affinity NOTA Conjugated Bombesin Antagonist as a PET Ligand for GRPR-Targeted Tumor Imaging” (PLoS ONE, 2013).
Entries after “also recorded” stand apart in the source; their conditions may differ. Where two headings read alike, the source gives them in different places.

Legend:
[1] = Labeling stability in murine serum (SDS-PAGE); format: in vitro ADME; settings: 37 °C, 1 h
Protocol: The labeling stability was evaluated using SDS-PAGE analysis (200 V constant) on NuPAGE 4–12% bis-Tris gels (Invitrogen) with the aims to check the release of fluorine-18, transchelation of [^18F]AlF to serum proteins, and cleavage of labeled protein by peptidases. […] After incubation, the samples were treated with NuPAGE® LDS Sample Buffer according to the manufacturer’s instructions and finally 0.05 nmol of sample loaded on the gel. Na^18F-sodium fluoride was loaded in a separate lane as a low molecular weight internal reference.

murine GRPRs = molecular target: T1, murine GRPRs (Mus musculus, UniProt P21729); assay: Biodistribution and in vivo binding specificity in NMRI mice; settings: iv, total radioactivity, male NMRI mice, 45 pmol i.v., 1 h p.i.
T1 construct: from tissue; host or cells: organs of male NMRI mice, in vivo (pancreas, stomach, small intestine and others)
Source text: (§1) All animal studies were planned and performed in accordance with the national legislation on the protection of laboratory animals and the Ethic Committee for Animal Research of the Uppsala University approved the study plans. Randomly divided groups of 4 mice per data point were used in all experiments. […] BALB/c nu/nu male mice with PC-3 xenografts (weight 20±1 g at the time of the experiment) were used for tumor targeting and imaging studies. The tumors were grafted by subcutaneous injection of PC-3 cells (10^7 cells/mouse) into the right hind legs 3 weeks before the experiment. The average tumor size was 0.42±0.05 g at the time of the experiment.
(§2) The mice were euthanized 1 h post-injection (p.i.) by intraperitoneal administration of Ketalar-Rompun solution (10 mg/mL Ketalar and 1 mg/mL Rompun; 20 µL of solution per gram of body weight). Blood samples were collected by cardiac puncture. The organs of interest were collected, weighed and their radioactivity was measured. The organ uptake values were expressed as a percentage of the injected dose per gram of tissue (%ID/g) except for the gastrointestinal tract (GI) and carcass, which were expressed as %ID per whole sample.

[2] = as above; settings: mouse, iv, total radioactivity, male NMRI mice, 45 pmol i.v., 1 h p.i.
Source text: as §1, §2

[3] = Biodistribution and in vivo binding specificity in PC-3 tumor-bearing BALB/c nu/nu mice; settings: mouse, iv, total radioactivity, male BALB/c nu/nu mice with PC-3 xenografts, 45 pmol i.v.; for tissue uptake at 1 h / tissue uptake at 6 h / tissue uptake at 3 h: male, BALB/c nu/nu; for tissue uptake at 1 h / tissue uptake dose at 1 h: 1 h p.i.; for tissue uptake at 6 h / tissue uptake dose at 6 h: 6 h p.i.; for tissue uptake at 3 h / tissue uptake dose at 3 h: 3 h p.i.
Source text: as §1
(§3) The mice were sacrificed at 1, 3 and 6 h p.i. to determine the uptake in tumors and other receptor-positive organs. A group of animals was co-injected with an excess of non-labeled peptide (20 nmol) and sacrificed 1 h p.i. The blood and other organs of interest were collected and treated as described above.

PC-3 xenografts = assay: as above
Source text: as §1, §3

[4] = blood, blocked (co-injected 20 nmol non-labeled peptide), read-out: Blood uptake
[5] = bone, blocked (co-injected 20 nmol non-labeled peptide), read-out: Bone uptake
[6] = kidney, blocked (co-injected 20 nmol non-labeled peptide), read-out: Kidney uptake
[7] = liver, blocked (co-injected 20 nmol non-labeled peptide), read-out: Liver uptake
[8] = lung, blocked (co-injected 20 nmol non-labeled peptide), read-out: Lung uptake
[9] = muscle, blocked (co-injected 20 nmol non-labeled peptide), read-out: Muscle uptake
[10] = pancreas, blocked (co-injected 20 nmol non-labeled peptide), read-out: Pancreas uptake
[11] = small intestine, blocked (co-injected 20 nmol non-labeled peptide), read-out: Small intestine uptake
[12] = spleen, blocked (co-injected 20 nmol non-labeled peptide), read-out: Spleen uptake
[13] = stomach, blocked (co-injected 20 nmol non-labeled peptide), read-out: Stomach uptake
[14] = carcass (whole sample), read-out: Carcass uptake
[15] = carcass (whole sample), blocked (co-injected 20 nmol non-labeled peptide), read-out: Carcass uptake
[16] = gastrointestinal tract (whole sample), read-out: GI tract uptake
[17] = gastrointestinal tract (whole sample), blocked (co-injected 20 nmol non-labeled peptide), read-out: GI tract uptake
[18] = blood, 45 pmol, read-out: Blood uptake
[19] = bone, 45 pmol, read-out: Bone uptake
[20] = kidney, 45 pmol, read-out: Kidney uptake
[21] = liver, 45 pmol, read-out: Liver uptake
[22] = lung, 45 pmol, read-out: Lung uptake
[23] = muscle, 45 pmol, read-out: Muscle uptake
[24] = pancreas, 45 pmol, read-out: Pancreas uptake
[25] = small intestine, 45 pmol, read-out: Small intestine uptake
[26] = spleen, 45 pmol, read-out: Spleen uptake
[27] = stomach, 45 pmol, read-out: Stomach uptake
[28] = tumor (PC-3 xenograft), 45 pmol, read-out: Tumor uptake
[29] = male BALB/c nu/nu mice with PC-3 xenografts, 45 pmol i.v., 3 h p.i.

T1 sequence (P21729 whole entry): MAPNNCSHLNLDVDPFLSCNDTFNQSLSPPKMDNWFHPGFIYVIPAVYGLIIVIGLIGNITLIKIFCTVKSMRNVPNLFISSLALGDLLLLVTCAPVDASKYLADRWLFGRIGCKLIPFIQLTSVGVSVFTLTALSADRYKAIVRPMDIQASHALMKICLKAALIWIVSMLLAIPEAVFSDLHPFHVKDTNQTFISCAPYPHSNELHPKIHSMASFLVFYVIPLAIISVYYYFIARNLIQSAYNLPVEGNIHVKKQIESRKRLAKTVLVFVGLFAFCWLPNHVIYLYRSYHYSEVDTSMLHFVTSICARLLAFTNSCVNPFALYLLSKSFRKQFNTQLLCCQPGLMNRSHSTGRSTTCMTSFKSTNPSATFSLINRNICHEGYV

SMILES: CC(C)C[C@H](NC(=O)C[C@H](O)[C@H](CC(C)C)NC(=O)[C@H](Cc1c[nH]cn1)NC(=O)CNC(=O)[C@@H](NC(=O)[C@H](C)NC(=O)[C@H](Cc1c[nH]c2ccccc12)NC(=O)[C@H](CCC(N)=O)NC(=O)[C@@H](Cc1ccccc1)NC(=O)COCCOCCNC(=O)CN1CCN(CC(=O)O)CCN(CC(=O)O)CC1)C(C)C)C(N)=O [[^18F]AlF-NOTA-P2-RM26]
- stability in murine serum [1]: stable; also recorded: single radioactivity peak
- tissue uptake at 1 h (murine GRPRs; blood, read-out: Blood uptake): 0.3 ± 0.1 %ID/g
- tissue uptake at 1 h (murine GRPRs; [4]): 0.3 ± 0.1 %ID/g
- tissue uptake at 1 h (murine GRPRs; bone, read-out: Bone uptake): 0.3 ± 0.2 %ID/g
- tissue uptake at 1 h (murine GRPRs; [5]): 0.2 ± 0.1 %ID/g
- tissue uptake at 1 h (murine GRPRs; kidney, read-out: Kidney uptake): 2.8 ± 0.5 %ID/g
- tissue uptake at 1 h (murine GRPRs; [6]): 3.4 ± 0.8 %ID/g
- tissue uptake at 1 h (murine GRPRs; liver, read-out: Liver uptake): 1.2 ± 0.3 %ID/g
- tissue uptake at 1 h (murine GRPRs; [7]): 1.4 ± 0.4 %ID/g
- tissue uptake at 1 h (murine GRPRs; lung, read-out: Lung uptake): 0.3 ± 0.2 %ID/g
- tissue uptake at 1 h (murine GRPRs; [8]): 0.3 ± 0.1 %ID/g
- tissue uptake at 1 h (murine GRPRs; muscle, read-out: Muscle uptake): 0.09 ± 0.03 %ID/g
- tissue uptake at 1 h (murine GRPRs; [9]): 0.08 ± 0.03 %ID/g
- tissue uptake at 1 h (murine GRPRs; pancreas, read-out: Pancreas uptake): 14 ± 6 %ID/g
- tissue uptake at 1 h (murine GRPRs; [10]): 0.4 ± 0.1 %ID/g
- tissue uptake at 1 h (murine GRPRs; small intestine, read-out: Small intestine uptake): 4 ± 2 %ID/g
- tissue uptake at 1 h (murine GRPRs; [11]): 1.7 ± 0.7 %ID/g
- tissue uptake at 1 h (murine GRPRs; spleen, read-out: Spleen uptake): 0.6 ± 0.3 %ID/g
- tissue uptake at 1 h (murine GRPRs; [12]): 0.16 ± 0.08 %ID/g
- tissue uptake at 1 h (murine GRPRs; stomach, read-out: Stomach uptake): 2 ± 1 %ID/g
- tissue uptake at 1 h (murine GRPRs; [13]): 0.3 ± 0.1 %ID/g
- tissue uptake dose at 1 h [2, 14]: 5 ± 2 %ID
- tissue uptake dose at 1 h [2, 15]: 5 ± 1 %ID
- tissue uptake dose at 1 h [2, 16]: 11 ± 3 %ID
- tissue uptake dose at 1 h [2, 17]: 5 ± 1 %ID
- tissue uptake at 1 h [3, 18]: 0.48 ± 0.08 %ID/g
- tissue uptake at 6 h [3, 18]: 0.023 ± 0.001 %ID/g
- tissue uptake at 1 h [3, 4]: 0.4 ± 0.2 %ID/g
- tissue uptake at 1 h [3, 19]: 0.3 ± 0.08 %ID/g
- tissue uptake at 3 h [3, 19]: 0.17 ± 0.08 %ID/g
- tissue uptake at 6 h [3, 19]: 0.22 ± 0.08 %ID/g
- tissue uptake at 1 h [3, 5]: 0.2 ± 0.2 %ID/g
- tissue uptake at 1 h [3, 20]: 3.6 ± 0.3 %ID/g
- tissue uptake at 3 h [3, 20]: 1.74 ± 0.25 %ID/g
- tissue uptake at 6 h [3, 20]: 0.27 ± 0.06 %ID/g
- tissue uptake at 1 h [3, 6]: 3.9 ± 0.8 %ID/g
- tissue uptake at 1 h [3, 21]: 1.9 ± 0.4 %ID/g
- tissue uptake at 3 h [3, 21]: 0.45 ± 0.21 %ID/g
- tissue uptake at 6 h [3, 21]: 0.1 ± 0.02 %ID/g
- tissue uptake at 1 h [3, 7]: 1.6 ± 0.3 %ID/g
- tissue uptake at 1 h [3, 22]: 0.36 ± 0.06 %ID/g
- tissue uptake at 3 h [3, 22]: 0.2 ± 0.2 %ID/g
- tissue uptake at 6 h [3, 22]: 0.11 ± 0.08 %ID/g
- tissue uptake at 1 h [3, 8]: 0.4 ± 0.3 %ID/g
- tissue uptake at 1 h [3, 23]: 0.1 ± 0.03 %ID/g
- tissue uptake at 3 h [3, 23]: 0.03 ± 0.01 %ID/g
- tissue uptake at 6 h [3, 23]: 0.02 ± 0.01 %ID/g
- tissue uptake at 1 h [3, 9]: 0.09 ± 0.04 %ID/g
- tissue uptake at 1 h [3, 24]: 13 ± 2 %ID/g
- tissue uptake at 3 h [3, 24]: 2.7 ± 0.7 %ID/g
- tissue uptake at 1 h [3, 10]: 0.3 ± 0.2 %ID/g
- tissue uptake at 1 h [3, 25]: 4 ± 2 %ID/g
- tissue uptake at 3 h [3, 25]: 0.88 ± 0.39 %ID/g
- tissue uptake at 6 h [3, 25]: 0.13 ± 0.06 %ID/g
- tissue uptake at 1 h [3, 11]: 2.6 ± 0.9 %ID/g
- tissue uptake at 1 h [3, 26]: 1 ± 0.2 %ID/g
- tissue uptake at 3 h [3, 26]: 0.1 ± 0.03 %ID/g
- tissue uptake at 6 h [3, 26]: 0.15 ± 0.08 %ID/g
- tissue uptake at 1 h [3, 12]: 0.7 ± 0.2 %ID/g
- tissue uptake at 1 h [3, 27]: 2.4 ± 0.4 %ID/g
- tissue uptake at 3 h [3, 27]: 1.37 ± 0.35 %ID/g
- tissue uptake at 6 h [3, 27]: 0.33 ± 0.08 %ID/g
- tissue uptake at 1 h [3, 13]: 0.4 ± 0.1 %ID/g
- tissue uptake at 1 h [3, 28]: 6.3 ± 0.9 %ID/g
- tissue uptake at 3 h [3, 28]: 5.5 ± 0.7 %ID/g
- tissue uptake at 6 h [3, 28]: 2.3 ± 0.7 %ID/g
- tissue uptake at 1 h ([3]; tumor (PC-3 xenograft), blocked (co-injected 20 nmol non-labeled peptide), read-out: Tumor uptake): 0.8 ± 0.2 %ID/g
- tissue uptake dose at 1 h [3, 14]: 6 ± 1 %ID
- tissue uptake dose at 3 h [3, 14]: 3.8 ± 0.3 %ID
- tissue uptake dose at 6 h [3, 14]: 0.8 ± 0.2 %ID
- tissue uptake dose at 1 h [3, 15]: 4 ± 1 %ID
- tissue uptake dose at 1 h [3, 16]: 6.1 ± 0.8 %ID
- tissue uptake dose at 3 h [3, 16]: 5.2 ± 0.4 %ID
- tissue uptake dose at 6 h [3, 16]: 3 ± 0.1 %ID
- tissue uptake dose at 1 h [3, 17]: 4.8 ± 0.3 %ID
- decrease of tumor uptake by co-injection of non-labeled peptide (PC-3 xenografts; PC-3 xenografted mice, 1 h p.i., 20 nmol non-labeled peptide): more than 8 fold
- Stomach uptake (PC-3 xenografts; [29]): 1.4±0.4 %ID/g
- Tumor uptake (PC-3 xenografts; [29]): 5.53±0.75 %ID/g
